The source made the active and inactive calls. How the calls were made is not given here.

The assay is described as follows: compounds inducing NF-kB luciferase expression – cell-based, SH-SY5Y, dose response (AID 1241). The note with it: SH-SY5Y NF-kB promoter luciferase reporter, fold induction. On the technique in general: In a reporter assay the amount or activity of a reporter protein is the signal.
Turning to `Clc1ccccc1OCc1nc(-c2ccccn2)no1`, the EC50 was 2.1 µM.
Under `Cn1cccc1C(=O)OCc1csc(-c2ccccc2)n1` stands 0.768 µM.
Under `COc1ccc(-c2nnc(-c3ccc(N)cc3)o2)cc1` stands 2.12 µM; under `COc1ccc(-c2cc(=O)c3cc(OC)ccc3o2)cc1`, 3.92 µM.
As to `c1ccc(-c2ccc(-c3nc(-c4ccncc4)no3)cc2)cc1`, the EC50 was 0.636 µM.
Then `CC(/C=N/NC(=O)c1cccs1)=C\c1ccccc1`, with 2.31 µM; and `O=C(Nc1ccccc1)c1ccc2ccccc2n1`, with 5.81 µM; and `CCNC(=S)NNC(=O)c1cc(-c2ccc(OCC)cc2)nc2ccccc12`, with 1.08 µM.
In the case of `O=C(/C=C\Nc1ccc(Br)cc1)c1cccnc1`, the EC50 was 1.15 µM.
Under `COc1ccccc1/C=C/C(=O)Nc1ccc2c(c1)OCCO2` stands 1.19 µM.
Under `COc1cccc(-c2noc(-c3ccc4c(c3)OCO4)n2)c1` stands 0.506 µM.
Under `CCN(CC)S(=O)(=O)c1cc(C(=O)OCC(=O)Nc2ccc(-c3nc4ccc(C)cc4s3)cc2)ccc1F` stands 0.516 µM.
For `COc1cc(SC)ccc1C(=O)NCCOc1ccccc1Cl`, the EC50 is 15.5 µM.
Under `CC(/C=N/NC(=O)c1ccco1)=C\c1ccccc1` stands 4.66 µM.
`CSc1ccccc1-c1nnc(-c2ccccc2)o1`: the EC50 was 3.7 µM.
Then `Cc1cccc(-c2cc3c(nn2)-c2ccccc2C3=O)c1`, with 2.6 µM; and `O=[N+]([O-])c1cc(O)c2ncccc2c1`, with 7.94 µM.
For the molecule `CC(C)(C)c1ccc(C(=O)Nc2cccc([N+](=O)[O-])c2)cc1`, the EC50 was 15.8 µM.
Under `COC(=O)c1ccc(-c2nc3ccccc3[nH]2)cc1` stands 0.946 µM.
Under `C=CCNc1nc(-c2ccc(Cl)cc2)cs1` stands 11.1 µM.
Then `Oc1ccc(-c2nnc(-c3ccc(O)cc3)nn2)cc1`, with 5.89 µM.
As to `O=C(c1cc(-c2cccc(O)c2)on1)N1CCCCC1`, the EC50 was 5.51 µM.
Then `COc1cccc(C(=O)/C=C/Nc2cc(C)ccc2O)c1`, with 5.51 µM.
Then `O=C(CSC(=S)N1CCSCC1)c1ccccc1`, with 3.44 µM.
On to `O=C(Nc1ccc2c(c1)CCC2)c1cccs1`, for which the EC50 was 6.51 µM.
Under `CN(C)c1ccc(-c2nnc(-c3cccs3)o2)cc1` stands 2.24 µM; under `O=C(/C=C/c1ccco1)Nc1ccc2c(c1)OCCO2`, 1.28 µM; under `Cc1ccc2nc3cc([N+](=O)[O-])cc([N+](=O)[O-])c3cc2c1`, 1.19 µM.
Under `Clc1ccc(Nc2nc(-c3cccs3)cs2)nc1` stands 0.686 µM; under `Nc1ccc(-c2nc3ccc([N+](=O)[O-])cc3[nH]2)cc1`, 1.65 µM; under `CC(=O)Nc1ccc(-c2cc3ccccc3o2)cc1`, 5.56 µM.
Then `c1ccc2c(c1)nnn1c3ccccc3nc21`, with 0.346 µM; and `COc1ccc(-c2ccc3ccccc3n2)cc1`, with 0.651 µM.
As to `FC(F)(F)c1cc(Cl)c2nc(-c3ccccc3)cn2c1`, the EC50 was 5.67 µM.
As for `N/C(=N\N=C\c1ccc2c(c1)OCO2)c1nonc1N`, the EC50 is 0.277 µM.
Under `Cc1ccc2sc(-c3ccc(NC(=O)/C=C\C(=O)O)cc3)nc2c1` stands 4.83 µM; under `C(=N\Nc1nc2ccccc2s1)/c1cccs1`, 0.887 µM; under `COc1ccc(C(=O)/C=C/Nc2ccc(C)cn2)cc1OC`, 6.49 µM.
Under `Cc1ccc2nc(-c3ccc(NC(=O)COC(=O)c4ccc(=O)[nH]c4)cc3)sc2c1` stands 0.66 µM.
Under `CCc1ccc(NC(=O)c2cnn(-c3ccccc3)c2C)cc1` stands 2.56 µM.
As to `CC(=O)N(/N=C1\Sc2ccccc2C1=O)c1cccc(C)c1`, the EC50 was 22.3 µM.
Then `CCc1sc(C(=O)N2CCc3ccccc32)cc1C`, with 1.69 µM.
Under `Cc1cccn2cc(-c3ccc(F)cc3)nc12` stands 1.86 µM; under `O=C(Nc1ccc2c(c1)OCO2)c1ccc2c(c1)OCO2`, 1.23 µM; under `O=C(N/N=C/C(Br)=C/c1ccccc1)c1n[nH]c2c1CCC2`, 0.659 µM.
Then `Cc1ccnc(NC(=O)/C=C/c2ccccc2[N+](=O)[O-])c1`, with 0.557 µM; and `COc1cccc(NC(=O)C(=S)NC2CCCCC2)c1`, with 4.22 µM; and `NC(=O)c1ccsc1NC(=O)c1ccc2c(c1)CCCC2`, with 0.455 µM.
`CC1CC1C(=O)OCC(=O)Nc1ccc(N=Nc2ccccc2)cc1` (centres undefined): the EC50 was 15.4 µM.
Then `Oc1ccc(-c2cn3cc(C(F)(F)F)ccc3n2)cc1`, with 1.19 µM; and `CC(=O)c1cccc(N/C=C\C(=O)c2ccc(C)cc2)c1`, with 0.904 µM.
Then `CC(C)Oc1cccc(C(=O)Nc2ccc(Br)cc2F)c1`, with 2.46 µM; and `CCC(=O)Oc1ccc(-c2cnc3ccccc3n2)cc1`, with 21.2 µM; and `COc1ccc2c(c1)CC/C(=C/c1ccco1)C2=O`, with 1.73 µM.
Under `O=C(Nc1ccc(Cl)cc1)c1ccc2c(c1)OCO2` stands 2.75 µM; under `Clc1ccc(-c2cn3c(n2)-c2ccccc2C3)cc1Cl`, 0.861 µM; under `S=C(Nc1ccccn1)c1ccccn1`, 2.03 µM.
On to `CN1CCN(Cc2cc(COCc3ccccc3)c3cccnc3c2O)CC1`, for which the EC50 was 11 µM.
With `Cc1ccc(C(=O)COC(=O)c2cccs2)cc1`, the EC50 is 2.45 µM.
Take `c1ccc(CSCc2cn3ccsc3n2)cc1`: the EC50 is 12.6 µM.
Then `O=C(/C=C/Nc1ccccc1C(F)(F)F)c1ccco1`, with 1.47 µM; and `Cc1csc(NC(=O)c2cc3c(s2)CCC3)n1`, with 1.05 µM; and `COCCOCCn1c(/C=C/c2ccccc2)nc2ccccc21`, with 5.78 µM.
As for `COc1cc(/C=N/O)ccc1OCc1ccc(Cl)cc1`, the EC50 was 0.882 µM.
Under `CC(C)c1ccc(Nc2nc(CC(=O)O)cs2)cc1` stands 5.81 µM; under `Cc1ccc(-c2cn3cccc(C)c3n2)cc1`, 2.3 µM; under `Cc1ccc(/C=C2\Sc3ccccc3C2=O)s1`, 5.98 µM.
Under `Cc1ccc(C)c(NC(=S)c2ccccn2)c1` stands 6.69 µM; under `Cc1cccc(NC(=O)c2cnc3sccn3c2=O)c1`, 0.998 µM.
Under `CN=c1scc(C)n1/N=C/c1ccc(O)cc1` stands 15.6 µM.
For the molecule `Cc1ccc(C(=O)Nc2ccc3c(c2)CCC3)o1`, the EC50 is 31 µM (inactive).
Then `Cc1ccc(C(=O)Nc2ccc(Cl)cn2)cc1`, with 17.3 µM; and `COc1ccc(Nc2nc(-c3cccs3)cs2)c(OC)c1`, with 2.33 µM.
Under `Oc1c(C(Nc2ccccn2)c2ccccn2)ccc2cccnc12` (centres undefined) stands 3.99 µM; under `COCC(=O)Nc1nnc(-c2ccc(C(C)(C)C)cc2)s1`, 11 µM; under `Oc1ccccc1/C=N/Nc1cccc2cccnc12`, 3.58 µM.
Consider `COc1ccc(-c2csc(Nc3ccccc3)n2)cc1`, for which the EC50 is 2.49 µM.
Then `CCc1ccc(NC(=O)c2cc(C)on2)cc1`, with 2.86 µM; and `COC(=O)CSc1nc(-c2cccs2)ccc1C#N`, with 5.62 µM; and `Cc1ccc2nc(-c3ccc(NC(=O)CCN4C(=O)c5ccccc5C4=O)cc3)sc2c1`, with 0.155 µM.
Under `CCCCn1cnc2sc(-c3ccccc3)cc2c1=O` stands 12 µM; under `COc1cc(/C=C(/C(=O)c2cccs2)c2nc3ccccc3[nH]2)cc(OC)c1O`, 7.67 µM.
As for `Oc1ccc(F)cc1-c1cc(-c2ccc3c(c2)OCCO3)n[nH]1`, the EC50 is 1.01 µM.
Under `COc1ccccc1N1CCN(Cc2ccc(O)c3ncccc23)CC1` stands 1.16 µM; under `COc1ccc(-c2csc(-c3ccccc3)n2)c(OC)c1`, 6.74 µM.
Then `COc1ccc(C(=O)/C=C/Nc2cccc(O)c2)cc1`, with 0.986 µM; and `COc1ccc(-c2nc(-c3ccc(Br)o3)no2)cc1`, with 2.01 µM; and `CC1CCN(C(=O)c2cc(-c3ccccc3O)on2)CC1`, with 8.79 µM.
Regarding `O=C(CC(Nc1ccc(F)cc1)C(=O)O)c1ccccc1` (centres undefined), the EC50 was 1.5 µM.
In the case of `CC1CCN(c2nc3ccc(C(=O)O)cc3s2)CC1`, the EC50 is 0.389 µM.
Under `COc1ccc(/C=N/N=C(\N)c2nonc2N)cc1` stands 0.272 µM; under `COc1ccc2nc(SCC(C)=O)c(C#N)cc2c1`, 1.9 µM; under `O=C(Nc1ccccc1)Nc1nc2ccccc2s1`, 27.2 µM.
Under `Cc1cccnc1NCc1ccc(O)c2ncccc12` stands 7.65 µM.
Regarding `C=CCNc1oc(/C=C/c2ccccc2)nc1C#N`, the EC50 is 27 µM.
Then `Cn1c(C(=O)Nc2ccc3c(c2)OCO3)cc2sccc21`, with 5.24 µM.
Then `Cc1nn2cc(-c3ccccc3)nc2s1`, with 2.03 µM; and `Cn1cccc1/C=C1\CCc2ccccc2C1=O`, with 1.63 µM; and `C/C(N)=C(/C#N)C(=O)CSc1nnc(-c2ccc3c(c2)OCO3)o1`, with below 0.059 µM.
`CN(C)c1ccc(NC(=O)CCCc2ccccc2)cc1`: the EC50 is 2.46 µM.
Then `O=C1/C(=C/c2cccs2)CCc2ccccc21`, with 4.12 µM.
Under `Cc1ccc(/C=C/c2nc3ccccc3[nH]2)o1` stands 2.06 µM; under `CS(=O)(=O)N1N=C(c2ccc(Br)cc2)CC1c1ccc2c(c1)OCO2` (centres undefined), 2.68 µM; under `CCc1ccc(-c2cc(N)n(-c3ccccc3)n2)cc1`, 16.4 µM.
Under `COc1ccc2c(c1OC)C(=O)OC2Nc1nc(-c2cc3ccccc3oc2=O)cs1` (centres undefined) stands 2.1 µM.
Consider `CC(C)(C)C(=O)Nc1nc(-c2ccc3c(c2)OCO3)cs1`, for which the EC50 is 2.66 µM.
Under `Cc1nnc(SCC(=O)Nc2ccc(-c3nc4ccccc4s3)cc2)s1` stands 0.328 µM.
Under `Cc1ccc(NC(=O)c2ccccc2)s1` stands 6.43 µM.
Under `Cc1ccsc1/C=C1\CCC(C2CCCC2)C1=O` (centres undefined) stands 5.84 µM; under `Nc1ccc2nc(SCc3cccc(F)c3)sc2c1`, 3.68 µM; under `O=C1/C(=C\c2ccco2)CCC/C1=C\c1ccco1`, 5 µM.
As to `CCOC(=O)c1ccc(Nc2ncccc2[N+](=O)[O-])cc1`, the EC50 is 2.83 µM.
Then `COc1c(C)cccc1C(=O)Nc1ccc(N2CCOCC2)c(Cl)c1`, with 13.4 µM.
Under `Nc1nn(-c2cccc(F)n2)cc1-c1ccccc1` stands 26 µM.

Usually EC50 stands for the concentration that produces a half-maximal response.
